Experimental findings from patent US9416143B2, “Griseofulvin derivatives” (PIERRE FABRE MEDICAMENT, priority 2012, dated 2016) are described below.

Where two headings read alike, the source gives them in different places.

What all share (assay type): cell-based
For experiment [1], the system named is HSC-1 (cutaneous squamous carcinoma cell line). As to the kind of experiment: Cell proliferation (ATPLite) on HSC-1 line. To be noted: 50% inhibition of cell proliferation, read 72 hours after addition. The protocol:
(§1) The lines N1E115 (ATCC, CRL2263), MDA-MB-231 (ATCC, HTB26) and HSC-1 (Health Science Research Resources Bank, JCRB1015) were cultured in DMEM medium (Dulbecco's Modified Eagle Medium) supplemented with 2 mM of L-Glutamine (Sigma, G7513) and 10% foetal calf serum (Hyclone, SH30109.03) or 20% for the HSC-1 cells. The HCC-1937 (ATCC, CRL2336) and A549 (ATCC, CCL185) lines were cultured in RPMI medium (Roswell Park Memorial Institute Medium) supplemented with 10% foetal calf serum and 2 mM of L-Glutamine. Finally, the SCC114 (DSMZ, ACC662) line was cultured in MEM medium (Minimum Essential Medium Eagle) supplemented with 10% foetal calf serum and 2 mM of L-Glutamine. Initially, in 96-well plates (Perkin Elmer, 6005668), the cells were seeded in their respective culture media with 750 cells per well for N1E115; 1000 cells per well for SCC114 and A549; 2000 cells per well for HCC-1937 and HSC-1; 2500 cells per well for MDA-MB-231. Cascade dilution of each compound was performed in dimethylsulfoxide (DMSO) (Sigma, D8418) from 10 mM stock solutions in 100% DMSO. Each of the dilutions was added to the cells 24 hours after seeding. Under these conditions the final solvent concentration was 0.1% DMSO. Reading of cell proliferation was conducted 72 hours after addition of products with the ATPLite kit (Perkin Elmer, 6016947) and following the manufacturer's directions except in the case of the HCC-1937 line for which this reading was carried out 48 hours after treatment. Analysis of proliferation results was performed by comparing with conditions in which solely the vehicle was added to the cells. The dose-response curves obtained were analysed using Prism 4.03 software (GraphPad Software Inc.) to determine the concentration of each compound allowing 50% inhibition of cell proliferation (IC50).
(§2) As examples, the cytotoxic properties of some compounds of the invention evaluated on the lines A549 (lung cancer cell line), MDA-MB-231 line (mammary adenocarcinoma cell line), N1E115 (mouse brain neuroblastoma cell line), HCC-1937 line (primary ductam breast carcinoma cell line), HSC-1 (cutaneous squamous carcinoma cell line) and SCC114 line (oral squamous carcinoma cell line) are reported in Table 1, as compared with griseofulvin used as control product. The concentration values are expressed in micromolar units (μM).
A general note: In ATP-based viability assays light output follows the ATP content of the culture.

The subject of experiment [2] is SCC114 line (oral squamous carcinoma cell line). Nature of the experiment: Cell proliferation (ATPLite) on SCC114 line. The following applies: read 72 hours after addition. The protocol:
as §1, §2

Experiment [3] has as its system A549 (lung cancer cell line). As to the kind of experiment: Cell proliferation (ATPLite) on A549 line. To be noted: read 72 hours after addition. The protocol: as §1, §2
Experiment [4] relates to N1E115 (mouse brain neuroblastoma cell line). Nature of the experiment: Cell proliferation (ATPLite) on N1E115 line. The following applies: read 72 hours after addition. The protocol: as §1, §2
The test system of experiment [5] is HCC-1937 line (primary ductam breast carcinoma cell line). Nature of the experiment: Cell proliferation (ATPLite) on HCC-1937 line. The following applies: read 48 hours after treatment. The protocol: as §1, §2
Experiment [6] deals with MDA-MB-231 line (mammary adenocarcinoma cell line). As to the kind of experiment: Cell proliferation (ATPLite) on MDA-MB-231 line. The following applies: read 72 hours after addition. The protocol: as §1, §2
Where [7] appears, read: 50% inhibition of cell proliferation.
[8] abbreviates: 50% inhibition of cell proliferation, read-out: IC50 (μM) N1E-115.
The mark [9] stands for this setting: 50% inhibition of cell proliferation, read-out: IC50 (μM) HCC1937.
[10] abbreviates: SCC114, 50% inhibition of cell proliferation.
[11] abbreviates: Homo sapiens, A549, 50% inhibition of cell proliferation.
Setting [12] is: Mus musculus, N1E-115, 50% inhibition of cell proliferation.
Setting [13] is: Homo sapiens, HCC1937, 50% inhibition of cell proliferation.
Setting [14] is: Homo sapiens, MDA-MB-231, 50% inhibition of cell proliferation.

The term IC50 denotes the concentration needed to halve the response being measured.

Take `COc1cc(OC)c2c(c1Cl)O[C@]1(C2=O)C2=C(C[C@H](c3ccccc3)O2)C(=O)C[C@H]1C` [compound 3, (2R,2′S,6R)-7′-chloro-4′,6′-dimethoxy-6-methyl-2-phenyl-5,6-dihydro-2H,3′H-2,7′-spirobi[benzofuran]-3′,4(3H)-dione]: the half-maximal inhibitory concentration (IC50) in experiment [1] is 6 µM; in experiment [2] (setting [7]), 0.52 µM; in experiment [3] (setting [7]) it was 0.25 µM; in experiment [4] (setting [8]) it was 0.21 µM; in experiment [5] (setting [9]), more than 10 µM; in experiment [6] (setting [7]) it was 0.45 µM.
As to `COc1cc(OC)c2c(c1Cl)O[C@]1(C2=O)C2=C(C[C@](C)(c3ccccc3)O2)C(=O)C[C@H]1C` [compound 5, (2R,2′S,6R)-7′-chloro-4′,6′-dimethoxy-2,6-dimethyl-2-phenyl-5,6-dihydro-2H,3′H-2,7′-spirobi[benzofuran]-3′,4(3H)-dione], the IC50 in experiment [2] (setting [7]) is 0.38 µM; in experiment [3] (setting [7]), 0.95 µM; in experiment [4] (setting [8]) it was 0.25 µM; in experiment [5] (setting [9]), more than 10 µM; in experiment [6] (setting [7]), 0.86 µM.
For the molecule `COc1cc(OC)c2c(c1Cl)O[C@]1(C2=O)C2=C(C[C@@](CCO)(c3ccccc3)O2)C(=O)C[C@H]1C` [compound 46, (2R,2′S,6R)-7′-chloro-2-(2-hydroxyethyl)-4′,6′-dimethoxy-6-methyl-2-phenyl-5,6-dihydro-2H,3′H-2,7′-spirobi[benzofuran]-3′,4(3H)-dione], the 50% inhibitory concentration (IC50) in experiment [1] was 0.79 µM; in experiment [2] (setting [7]) it was 0.57 µM; in experiment [3] (setting [7]), 0.86 µM; in experiment [4] (setting [8]) it was 0.22 µM; in experiment [5] (setting [9]), more than 10 µM.
As to `COc1cc(OC)c2c(c1Cl)O[C@@]1(C=C([S+]([O-])c3ccccc3)C(=O)C[C@H]1C)C2=O` (stereo partly shown) [compound 95], the half-inhibitory concentration (IC50) in experiment [1] was 0.32 µM; in experiment [2] (setting [7]), 0.25 µM; in experiment [3] (setting [7]), 0.25 µM; in experiment [4] (setting [8]), 1 µM; in experiment [5] (setting [9]), 0.43 µM; in experiment [6] (setting [7]), 0.54 µM.
Turning to `COc1cc(OC)c2c(c1Cl)O[C@]1(C2=O)C(S(=O)(=O)Cc2ccccc2)=CC(=O)C[C@H]1C` [compound 145, (1′R,6′R)-2′-(benzylsulfonyl)-7-chloro-4,6-dimethoxy-6′-methyl-3H-spiro[benzofuran-2,1′-cyclohex[2]ene]-3,4′-dione], the half-maximal inhibitory concentration (IC50) in experiment [1] came out at 1.4 µM; in experiment [2] (setting [7]), 0.385 µM; in experiment [3] (setting [7]), 1.5 µM; in experiment [4] (setting [8]), 3 µM; in experiment [5] (setting [9]), 1.4 µM; in experiment [6] (setting [7]), 2 µM.
Turning to `COC(=O)C1=C[C@H](c2ccccc2)C2=C(C[C@@H](C)[C@]3(Oc4c(Cl)c(OC)cc(OC)c4C3=O)C2=O)N1` [compound 149, (2S,4′R,7′R)-methyl 7-chloro-4,6-dimethoxy-7′-methyl-3,5′-dioxo-4′-phenyl-4′,5′,7′,8′-tetrahydro-1′H,3H-spiro[benzofuran-2,6′-quinoline]-2′-carboxylate], the IC50 in experiment [1] is 0.72 µM; in experiment [2] (setting [10]) it was 0.23 µM; in experiment [3] (setting [11]) it was 0.24 µM; in experiment [4] (setting [12]) it was 0.21 µM; in experiment [5] (setting [13]), more than 10 µM; in experiment [6] (setting [14]), 0.34 µM.
Regarding `COC(=O)c1cc(-c2ccccc2)c2c(n1)C[C@@H](C)[C@]1(Oc3c(Cl)c(OC)cc(OC)c3C1=O)C2=O` [compound 152, (2S,7′R)-methyl 7-chloro-4,6-dimethoxy-7′-methyl-3,5′-dioxo-4′-phenyl-7′,8′-dihydro-3H,5′H-spiro[benzofuran-2,6′-quinoline]-2′-carboxylate], the IC50 in experiment [1] was 10 µM; in experiment [2] (setting [10]), 0.71 µM; in experiment [3] (setting [11]), 0.48 µM; in experiment [4] (setting [12]), 0.62 µM; in experiment [5] (setting [13]), more than 10 µM; in experiment [6] (setting [14]) it was 1.6 µM.
In the case of `COc1cc(OC)c2c(c1Cl)O[C@]1(C2=O)C2=C(C[C@@H](c3ccccc3)O2)/C(=N/O)C[C@H]1C` [compound 217, (2′S,6R,E)-7′-chloro-4-(hydroxyimino)-4′,6′-dimethoxy-6-methyl-2-phenyl-3,4,5,6-tetrahydro-2H,3′H-2,7′-spirobi[benzofuran]-3′-one], the concentration for half-maximal inhibition (IC50) in experiment [1] was 1.3 µM; in experiment [2] (setting [7]), 0.33 µM; in experiment [3] (setting [7]), 0.36 µM; in experiment [4] (setting [8]), 0.73 µM; in experiment [5] (setting [9]), more than 10 µM; in experiment [6] (setting [7]) it was 0.63 µM.
With `COc1cc(OC)c2c(c1Cl)O[C@]1(C2=O)C(O)c2ccc(C)nc2C[C@H]1C` (stereo partly drawn) [compound 249, (2S,7′R)-7-chloro-5′-hydroxy-4,6-dimethoxy-2′,7′-dimethyl-7′,8′-dihydro-3H,5′H-spiro[benzofuran-2,6′-quinolin]-3-one], the 50% inhibitory concentration (IC50) in experiment [1] was 0.88 µM; in experiment [2] (setting [10]), 0.42 µM; in experiment [3] (setting [11]), 0.55 µM; in experiment [4] (setting [12]) it was 0.26 µM; in experiment [5] (setting [13]), more than 10 µM; in experiment [6] (setting [14]) it was 0.34 µM.
As to `CCc1ccc2c(n1)C[C@@H](C)[C@]1(Oc3c(Cl)c(OC)cc(OC)c3C1=O)C2O` (stereo partly drawn) [compound 250, (2 S,7′R)-7-chloro-2′-ethyl-5′-hydroxy-4,6-dimethoxy-7′-methyl-7′,8′-dihydro-3H,5′H-spiro[benzofuran-2,6′-quinolin]-3-one], the half-maximal inhibitory concentration (IC50) in experiment [1] was 1.9 µM; in experiment [2] (setting [10]) it was 0.54 µM; in experiment [3] (setting [11]), 1.4 µM; in experiment [4] (setting [12]) it was 1.4 µM; in experiment [5] (setting [13]), more than 10 µM; in experiment [6] (setting [14]), 0.35 µM.
`COC(=O)c1cc(-c2ccccc2)c2c(n1)C[C@@H](C)[C@]1(Oc3c(Cl)c(OC)cc(OC)c3C1=O)[C@H]2O` [compound 252, (2S,5′S,7′R)-methyl 7-chloro-5′-hydroxy-4,6-dimethoxy-7′-methyl-3-oxo-4′-phenyl-7′,8′-dihydro-3H,5′H-spiro[benzofuran-2,6′-quinoline]-2′-carboxylate]: the IC50 in experiment [1] was 0.52 µM; in experiment [2] (setting [10]) it was 0.32 µM; in experiment [3] (setting [11]), 0.25 µM; in experiment [4] (setting [12]) it was 0.2 µM; in experiment [5] (setting [13]), more than 10 µM; in experiment [6] (setting [14]) it was 0.38 µM.
